# Source: patent US20190321345A1, “GLUT4 Selective Inhibitors for Cancer Therapy” (Emory University, priority 2016, published 2019)
# Tests used:
# Assay type in all cases: cell-based
# KMS11-GFP cells = assay: Proliferation of KMS11-GFP myeloma cells (Cell Titre Glo); settings: for EC50: inhibition of proliferation, 72 hours, Cell Titre Glo; for impact on proliferation in KMS11-GFP cells compared with KMS11-GLUT1 cells: isogenic cell line pair
# Method: (§1) IC50 studies were performed using the CellTiter-Glo assay (Promega, Madison, Wis.). 20,000 cells in 100 ul complete RPMI 1640 medium were plated per well in 96-well plates, with a concentration range of individual compounds. After 72 h incubation, 100 uL Glo reagent were added to each well and luminescence was measured using a Biotek Synergy 4 multimode plate reader. Cell number was assessed by trypan blue standing and an automatic cell counter (Biorad). For cell viability assays 0.125×10^6 cells/mL were treated with the indicated concentration of drug, washed with 1×PBS and evaluated for viability by AnnexinV/DAPI staining and flow cytometry. Data analysis was per-formed with the FCS express version 3 (De Novo software, Los Angeles).
# (§2) Compound were selected as a lead based on its low IC50, selectivity for inhibition of glucose transport through GLUT4, and inhibition of the KMS11-GFP cell line proliferation in contrast to the GLUT1 expressing isogenic line. Compounds were assessed in a high-throughput proliferation-based assay using an isogenic MM (KMS11) cell line pair overexpressing GLUT1 or GFP (as a control) (model of screen is depicted in FIG. 2A). […] Isogenic KMS11-GFP/GLUT1 overexpressing myeloma cell lines were treated with a dose range of the indicated test compound for 72 hours followed by evaluation of viable cell number by Cell Titre Glo assay
# KMS11-GLUT1 cells = assay: Proliferation of KMS11-GLUT1 myeloma cells (Cell Titre Glo); settings: inhibition of proliferation, 72 hours
# Method: as §1, §2
# GLUT8 = biological target: T1, GLUT8 (Homo sapiens, UniProt Q9NY64); assay: 2-DOG transport in HEK293 cells over-expressing GLUT8; settings: pre-treated 5 minutes, 2-DOG uptake 4 min; cells lacking GLUT1; read-out: IC50 (inhibition of 2-DOG transport in HEK cells over-expressing GLUT isoforms) GLUT8
# T1 construct: expressed in transfected cells; host or cells: HEK293 stably expressing GLUT1 shRNA
# T1 sequence (Q9NY64 1-477): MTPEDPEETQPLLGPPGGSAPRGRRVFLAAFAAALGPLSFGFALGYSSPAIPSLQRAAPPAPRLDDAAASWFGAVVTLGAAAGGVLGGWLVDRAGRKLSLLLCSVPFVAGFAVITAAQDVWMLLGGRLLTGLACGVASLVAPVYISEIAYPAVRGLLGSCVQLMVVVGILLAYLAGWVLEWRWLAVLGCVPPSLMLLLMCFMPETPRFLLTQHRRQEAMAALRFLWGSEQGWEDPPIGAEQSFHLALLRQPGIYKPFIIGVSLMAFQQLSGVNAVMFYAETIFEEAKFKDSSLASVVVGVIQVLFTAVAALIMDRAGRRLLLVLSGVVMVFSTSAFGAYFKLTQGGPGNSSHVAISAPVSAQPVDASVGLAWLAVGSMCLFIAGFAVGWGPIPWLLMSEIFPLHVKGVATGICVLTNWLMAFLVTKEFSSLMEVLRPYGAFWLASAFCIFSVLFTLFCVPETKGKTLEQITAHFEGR
# Method: (§3) Tissue culture plates were pretreated with 25 μg/ml polyethyleneimine (Fluka, catalogue number P3143) in 150 mM NaCl for 20min to let cells adhere. JNN3 cells were subsequently plated and grown to 40-60% confluency in complete RPMI 1640 medium. HEK293 GLUT overexpressing cells were plated at 400,000 cells/ml overnight. Cells were then washed with glucose-free HEPES buffer twice and starved for 30 min. The uptake of 2-[^3H] deoxy-D-glucose (2-DOG) (50 μM) was measured in glucose-free HEPES buffer for 4-6 min at 37° C. Compound 20 (20 μM) was added 5-6 min prior to the addition of glucose depending on the specific assay. For the HEK293 GLUT overexpressing cells, non-specific uptake was measured in non-transfected HEK293 cells containing the shRNA GLUT1 knockdown and was subtracted from the experimental values. Data are plotted as percent uptake relative to unexposed HEK293 cultures. Data were normalized to fit by nonlinear regression analysis using GraphPad Prism software.
# (§4) Compound 20 was further screened for GLUT4 selectivity by evaluating inhibition of glucose transport in HEK 293 cells exogenously over-expressing human GLUTs-1, -2, -3, -4, or -8 that also stably express GLUT1 shRNA (except the GLUT1 overexpressing cell line) to knock down endogenous GLUT1.
# (§5) Glucose transport in HEK293 cells over-expressing GLUT1 or over-expressing GLUT4 or GLUT8 in cells lacking GLUT1 were used to evaluate inhibition of glucose transport. Cells were pre-treated with compound for 5 minutes followed by evaluation of 22-DOG uptake for 4 min at 370 C. Non-specific uptake was measured in nontransfected HEK293 cells containing the shRNA GLUT1 knockdown and was subtracted from the experimental values.
# GLUT1 = biological target: T2, GLUT1 (Homo sapiens, UniProt P11166); assay: 2-DOG transport in HEK293 cells over-expressing GLUT1; settings: pre-treated 5 minutes, 2-DOG uptake 4 min; read-out: IC50 (inhibition of 2-DOG transport in HEK cells over-expressing GLUT isoforms) GLUT1
# T2 construct: expressed in transfected cells; host or cells: HEK293
# T2 sequence (P11166 1-492): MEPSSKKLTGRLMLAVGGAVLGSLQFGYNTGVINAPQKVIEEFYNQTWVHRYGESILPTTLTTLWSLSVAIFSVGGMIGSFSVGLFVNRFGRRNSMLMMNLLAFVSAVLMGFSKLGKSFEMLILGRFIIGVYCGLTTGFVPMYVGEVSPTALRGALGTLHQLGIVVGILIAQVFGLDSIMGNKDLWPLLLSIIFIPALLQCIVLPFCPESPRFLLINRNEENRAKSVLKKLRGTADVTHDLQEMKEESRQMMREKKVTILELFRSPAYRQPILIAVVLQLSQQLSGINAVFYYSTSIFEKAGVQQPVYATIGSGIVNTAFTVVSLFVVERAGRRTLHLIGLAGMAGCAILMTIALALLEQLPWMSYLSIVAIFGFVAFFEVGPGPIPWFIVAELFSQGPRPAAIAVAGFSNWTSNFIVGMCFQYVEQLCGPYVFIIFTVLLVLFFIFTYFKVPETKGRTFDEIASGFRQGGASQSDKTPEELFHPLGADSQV
# Method: as §3, with “software. […]” for “software.”
# as §5, with “Cells were pre-treated with compound for 5 minutes followed by evaluation of 22-DOG uptake for 4 min at 370 C.” left out
# GLUT4 = biological target: T3, GLUT4 (Homo sapiens, UniProt P14672); assay: 2-DOG transport in HEK293 cells over-expressing GLUT4; settings: pre-treated 5 minutes, 2-DOG uptake 4 min; cells lacking GLUT1; read-out: IC50 (inhibition of 2-DOG transport in HEK cells over-expressing GLUT isoforms) GLUT4
# T3 construct: expressed in transfected cells; host or cells: HEK293 stably expressing GLUT1 shRNA
# T3 sequence (P14672 1-509): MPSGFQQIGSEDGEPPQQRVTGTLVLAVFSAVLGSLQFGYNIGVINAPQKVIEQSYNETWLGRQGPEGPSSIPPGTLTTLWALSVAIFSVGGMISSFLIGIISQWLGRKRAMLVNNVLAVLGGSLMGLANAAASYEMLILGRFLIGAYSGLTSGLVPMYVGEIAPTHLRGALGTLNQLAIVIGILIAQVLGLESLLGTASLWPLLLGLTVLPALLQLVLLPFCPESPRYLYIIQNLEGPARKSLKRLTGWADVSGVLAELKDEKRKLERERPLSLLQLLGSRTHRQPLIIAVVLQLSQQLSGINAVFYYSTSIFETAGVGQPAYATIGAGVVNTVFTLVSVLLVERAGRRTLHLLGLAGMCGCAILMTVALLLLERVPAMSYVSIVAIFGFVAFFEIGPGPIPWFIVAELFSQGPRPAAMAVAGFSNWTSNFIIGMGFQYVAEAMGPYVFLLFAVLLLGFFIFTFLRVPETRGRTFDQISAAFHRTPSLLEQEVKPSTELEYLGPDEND
# Method: as §3, §4, §5
Structure (SMILES),EC50 (KMS11-GFP cells),EC50 (KMS11-GLUT1 cells),IC50 (GLUT8),IC50 (GLUT1),IC50 (GLUT4),impact on proliferation in KMS11-GFP cells compared with KMS11-GLUT1 cells (KMS11-GFP cells)
"COc1ccc(C(=O)N(Cc2ccncc2)Cc2cccc(OCC3CCN(C(=O)OC(C)(C)C)CC3)c2)cc1 [Compound 11, Tert-butyl 4-((3-((4-methoxy-N-(pyridin-4-ylmethyl)benzamido)methyl)phenoxy)methyl)piperidine-1-carboxylate]",5.1 µM,4.9 µM,,,,
"COc1ccc(C(=O)N(Cc2ccncc2)Cc2cccc(OCC(=O)c3cccc(Br)c3)c2)cc1 [Compound 21, N-(3-(2-(3-bromophenyl)-2-oxoethoxy)benzyl)-4-methoxy-N-(pyridin-4-ylmethyl)benzamide]",18.7 µM,21.4 µM,,,,
"COc1ccc(C(=O)N(Cc2ccncc2)Cc2cccc(OCC3CCCCC3)c2)cc1 [Compound 12, N-(3-(cyclohexylmethoxy)benzyl)-4-methoxy-N-(pyridin-4-ylmethyl)benzamide]",19.7 µM,16 µM,,,,
"COc1ccc(C(=O)N(Cc2ccncc2)Cc2cccc(OCCc3cccc(C(F)(F)F)c3)c2)cc1 [Compound 8, 4-Methoxy-N-(pyridin-4-ylmethyl)-N-(3-(3-(trifluoromethyl)phenethoxy)benzyl)benzamide]",8.9 µM,15.1 µM,,,,greater impact on proliferation in KMS11-GFP cells
"Oc1cccc(CNCc2ccncc2)c1 [Compound 3, reference compound]",,,> 100 µM,> 100 µM,18.9 µM,
"COc1ccc(C(=O)N(Cc2ccncc2)Cc2cccc(OCC3CCOCC3)c2)cc1 [Compound 9, 4-Methoxy-N-(pyridin-4-ylmethyl)-N-(3-((tetrahydro-2H-pyran-4-yl)methoxy)benzyl)benzamide]",17.7 µM,25.8 µM,,,,greater impact on proliferation in KMS11-GFP cells
"COc1ccc(C(=O)N(Cc2ccncc2)Cc2cccc(OCC(=O)c3ccc(Cl)cc3)c2)cc1 [Compound 18, N-(3-(2-(4-chlorophenyl)-2-oxoethoxy)benzyl)-4-methoxy-N-(pyridin-4-ylmethyl)benzamide]",18.5 µM,16.9 µM,,,,

# The next lines start with results.
EC50 (KMS11-GFP cells),EC50 (KMS11-GLUT1 cells),IC50 (GLUT8),IC50 (GLUT1),IC50 (GLUT4),Structure (SMILES),impact on proliferation in KMS11-GFP cells compared with KMS11-GLUT1 cells (KMS11-GFP cells)
13.1 µM,15.6 µM,,,,"O=C(c1ccc(Cl)cc1)N(Cc1ccncc1)Cc1cccc(OCCc2ccc(F)cc2)c1 [Compound 19, 4-Chloro-N-(3-(4-fluorophenethoxy)benzyl)-N-(pyridin-4-ylmethyl)benzamide]",
22.7 µM,28.6 µM,,,,"COc1ccc(C(=O)N(Cc2ccncc2)Cc2cccc(OCc3ccc(F)cc3)c2)cc1 [Compound 16, N-(3-((4-fluorobenzyl)oxy)benzyl)-4-methoxy-N-(pyridin-4-ylmethyl)benzamide]",
9.1 µM,12.7 µM,,,,"COc1ccc(C(=O)N(Cc2ccncc2)Cc2cccc(OCCc3ccc(C)cc3)c2)cc1 [Compound 7, 4-Methoxy-N-(3-(4-methylphenethoxy)benzyl)-N-(pyridin-4-ylmethyl)benzamide]",
14.3 µM,16.8 µM,,,,COc1ccc(C(=O)N(Cc2ccncc2)Cc2cccc(OCc3ccc(C(F)(F)F)cc3)c2)cc1 [Compound 15],
16.9 µM,21 µM,,,,"COc1ccc(C(=O)N(Cc2ccncc2)Cc2cccc(OCCc3ccccc3)c2)cc1 [Compound 10, 4-Methoxy-N-(3-phenethoxybenzyl)-N-(pyridin-4-ylmethyl)benzamide]",
15.4 µM,11.7 µM,,,,"COc1ccc(C(=O)N(Cc2ccncc2)Cc2cccc(OCc3ccc([N+](=O)[O-])cc3)c2)cc1 [Compound 14, 4-Methoxy-N-(3-((4-nitrobenzyl)oxy)benzyl)-N-(pyridin-4-ylmethyl)benzamide]",
19.6 µM,20.6 µM,,,,"COc1ccc(C(=O)N(Cc2ccncc2)Cc2cccc(OCc3cccc([N+](=O)[O-])c3)c2)cc1 [Compound 22, 4-Methoxy-N-(3-((3-nitrobenzyl)oxy)benzyl)-N-(pyridin-4-ylmethyl)benzamide]",
16.9 µM,28.5 µM,> 100 µM,> 100 µM,10.8 µM,"COc1ccc(C(=O)N(Cc2ccncc2)Cc2cccc(OCc3cccc(OC)c3)c2)cc1 [Compound 17, 4-Methoxy-N-(3-((3-methoxybenzyl)oxy)benzyl)-N-(pyridin-4-ylmethyl)benzamide]",greater impact on proliferation in KMS11-GFP cells
8.4 µM,6.5 µM,,,,"COc1ccc(C(=O)N(Cc2ccncc2)Cc2cccc(OCCc3ccc(Br)cc3)c2)cc1 [Compound 13, N-(3-(4-bromophenethoxy)benzyl)-4-methoxy-N-(pyridin-4-ylmethyl)benzamide]",
